In the assay the test system is FOXC2-expressing HMLER cells. Put plainly: Cell Titer Glo viability of FOXC2-HMLER cells (high throughput screen and 10-point response). The conditions noted are these: Homo sapiens, 72 hours. It is filed as cell-based. The essentials:
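Viability after 72 h compound exposure was measured as Cell Titer Glo luminescence. FOXC2-HMLER and parental HMLER cells, 1,000 per well in MEGM medium, were dosed 1 h after plating; screening concentration was 2 μM.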

The mark [1] stands for this setting: scored relative to parent compound 2, read-out: Activity Score, inhibition of FOXC2-expressing HMLER cells by Formula II compounds.
Where [2] appears, read: scored relative to parent compound 3, read-out: Activity Score, inhibition of FOXC2-expressing HMLER cells by Formula III compounds.

54 molecules from US11759461B2, “Small molecule inhibitors of cancer stem cells and mesenchymal cancer types” (The Scripps Research Institute, priority 2017, dated 2023) can be followed below.

SMILES strings stand for the structures. Like-named read-outs stand apart in the source and are kept apart here. Some results are limits rather than exact numbers.

For `COc1ccc2cc(CNc3ccc(C)cc3)c(=O)n(CC(=O)Nc3c(C)cccc3C)c2c1` [Compound 2IM], the IC50 under setting [1] was > 20 µM.

Turning to `CCc1ccc(NCc2cc3cc(OC)c(OC)cc3n(CC(=O)Nc3cc(C)ccc3C)c2=O)cc1` [Compound 2I], under setting [1], the IC50 fell in the range of 1 to 20 µM.

As for `CCc1ccc(NCc2cc3ccc(OC)cc3n(CC(=O)Nc3ccc(C)cc3C)c2=O)cc1` [Compound 2J], the IC50 under setting [1] is 1 to 20 µM. Same read-out and setting: next, `COc1ccc2cc(CNc3ccc(C)cc3)c(=O)n(CC(=O)Nc3c(C)cc(C)cc3C)c2c1` [Compound 2K]: 1 to 20 µM. On the same count and under the same terms, the result for `COc1ccc(NCc2cc3ccc(C)cc3n(CC(=O)Nc3cc(C)ccc3C)c2=O)cc1OC` [Compound 2L] reads 1 to 20 µM.

Turning to `COc1ccc2cc(CNc3ccc(C)cc3)c(=O)n(CC(=O)Nc3ccc(C)cc3Cl)c2c1` [Compound 2M], the IC50 under setting [1] was in the range of 1 to 20 µM.

On to `CCc1ccc(NCc2cc3cc4c(cc3n(CC(=O)Nc3ccccc3CC)c2=O)OCCO4)cc1` [Compound 2N], for which the IC50 under setting [1] was in the range of 1 to 20 µM.

Turning to `COc1ccc2cc(CNc3ccc(C)cc3)c(=O)n(CC(=O)Nc3ccccc3F)c2c1` [Compound 2O], the IC50 under setting [1] lay within 1 to 20 µM. Still for that read-out and setting: the result for `CCc1ccc(NCc2cc3cc4c(cc3n(CC(=O)Nc3ccccc3C)c2=O)OCCO4)cc1` [Compound 2P] reads 1 to 20 µM. Regarding `COc1ccc2cc(CNc3ccc(C)cc3)c(=O)n(CC(=O)Nc3ccc(Cl)cc3)c2c1` [Compound 2Q], the IC50 under setting [1] was 1 to 20 µM. Same read-out and setting: next, `COc1ccc2cc(CNc3ccccc3)c(=O)n(CC(=O)Nc3cc(C)ccc3C)c2c1` [Compound 2R]: 1 to 20 µM; `CCOc1ccc(NC(=O)Cn2c(=O)c(CNc3ccc(C)cc3)cc3cc4c(cc32)OCCO4)cc1` [Compound 2S]: 1 to 20 µM. For the molecule `CCc1ccc(NCc2cc3ccc(OC)cc3n(CC(=O)Nc3ccccc3F)c2=O)cc1` [Compound 2T], the IC50 under setting [1] lay in the range of 1 to 20 µM. With `COc1ccc2cc(CNc3ccc(C)cc3)c(=O)n(CC(=O)Nc3cc(C)ccc3C)c2c1` [Compound 2U], under setting [1], the IC50 was 1 to 20 µM. As for `COc1cc2cc(CNc3ccccc3)c(=O)n(CC(=O)Nc3ccc(C(C)C)cc3)c2cc1OC` [Compound 2V], the IC50 under setting [1] was in the range of 1 to 20 µM. With `COc1ccc(NCc2cc3cc4c(cc3n(CC(=O)Nc3cc(C)ccc3C)c2=O)OCCO4)cc1` [Compound 2W], under setting [1], the IC50 fell in the range of 1 to 20 µM. On to `COc1cc2cc(CNc3ccccc3)c(=O)n(CC(=O)Nc3cc(C)ccc3C)c2cc1OC` [Compound 2X], for which the IC50 under setting [1] lay within 1 to 20 µM.

Regarding `COc1cc2cc(CNc3ccccc3)c(=O)n(CC(=O)Nc3cccc(Cl)c3C)c2cc1OC` [Compound 2Y], the IC50 under setting [1] lay within 1 to 20 µM. On the same count and under the same terms, the result for `CCOc1ccc(NC(=O)Cn2c(=O)c(CNc3ccc(CC)cc3)cc3ccc(OC)cc32)cc1` [Compound 2Z] reads 1 to 20 µM; that for `COC(=O)c1ccccc1NC(=O)Cn1c(=O)c(CNc2ccccc2)cc2ccc(OC)cc21` [Compound 2], < 1 µM. As for `Cc1ccc(C(=O)N2CCN(c3ccc(F)cc3)CC2)cc1-n1nnc2cccnc21` [Compound 3AA], the IC50 under setting [2] is 1 to 20 µM.

For the molecule `Cc1ccc(CN2CCC(CNC(=O)c3ccc(C)c(-n4nnc5cccnc54)c3)CC2)cc1` [Compound 3AB], the IC50 under setting [2] was 1 to 20 µM.

For `Cc1ccc(C)c(N2CCN(CCCNC(=O)c3ccc(C)c(-n4nnc5cccnc54)c3)CC2)c1` [Compound 3AC], the IC50 under setting [2] lay in the range of 1 to 20 µM. On the same count and under the same terms, the result for `Cc1ccc(Cl)cc1N1CCN(C(=O)c2cccc(-n3nnc4cccnc43)c2C)CC1` [Compound 3AD] reads 1 to 20 µM; that for `Cc1c(C(=O)NC2CC2)cccc1-n1nnc2cccnc21` [Compound 3AE], 1 to 20 µM.

As for `Cc1c(C(=O)N2CCC(Cc3ccccc3)CC2)cccc1-n1nnc2cccnc21` [Compound 3AF], the IC50 under setting [2] is 1 to 20 µM. Turning to `Cc1ccc(C)c(N2CCN(CCCNC(=O)c3cccc(-n4nnc5cccnc54)c3C)CC2)c1` [Compound 3AH], under setting [2], the IC50 lay in the range of 1 to 20 µM.

Regarding `O=C(c1ccc(-n2nnc3cccnc32)cc1)N1CCC(Cc2ccccc2)CC1` [Compound 3AI], the IC50 under setting [2] is 1 to 20 µM.

Take `Cc1c(C(=O)N2CCN(c3ccccc3)CC2)cccc1-n1nnc2cccnc21` [Compound 3AJ]: the IC50 under setting [2] lay within 1 to 20 µM. Still for that read-out and setting: the result for `Cc1c(C(=O)NCCCN2CCC(Cc3ccccc3)CC2)cccc1-n1nnc2cccnc21` [Compound 3AK] reads 1 to 20 µM; that for `CN(Cc1ccccc1)C(=O)c1ccc(-n2nnc3cccnc32)cc1` [Compound 3AL], > 20 µM; that for `O=C(c1ccc(-n2nnc3cccnc32)cc1)N1CCN(c2ccccc2)CC1` [Compound 3AM], > 20 µM. The same measure, in the same setting: next, `O=C(c1ccc(-n2nnc3cccnc32)cc1)N1CCN(C2CCCCC2)CC1` [Compound 3AN]: > 20 µM; `CCN(Cc1ccccc1)C(=O)c1ccc(-n2nnc3cccnc32)cc1` [Compound 3AO]: > 20 µM; `COc1ccc(N2CCN(C(=O)c3ccc(-n4nnc5cccnc54)cc3)CC2)cc1` [Compound 3AP]: > 20 µM. Still for that read-out and setting: the result for `Cc1cc(C(=O)N2CCC(C)CC2)ccc1-n1nnc2cccnc21` [Compound 3AQ] reads > 20 µM; that for `Cc1ccc(NC(=O)c2ccc(-n3nnc4cccnc43)c(C)c2)cc1C` [Compound 3AR], > 20 µM. As to `COc1ccc(N2CCN(C(=O)c3ccc(-n4nnc5cccnc54)c(C)c3)CC2)cc1` [Compound 3AS], the IC50 under setting [2] is > 20 µM. Regarding `Cc1ccc(NC(=O)c2ccc(-n3nnc4cccnc43)c(C)c2)cc1` [Compound 3AT], the IC50 under setting [2] was > 20 µM. In the case of `Cc1cc(C(=O)NCCCN2CCN(C3CCCCC3)CC2)ccc1-n1nnc2cccnc21` [Compound 3AU], the IC50 under setting [2] is > 20 µM. The same measure, in the same setting: next, `O=C(c1cccc(-n2nnc3cccnc32)c1)N1CCCC1` [Compound 3AV]: > 20 µM; `CCCCN(CC)C(=O)c1cccc(-n2nnc3cccnc32)c1` [Compound 3AW]: > 20 µM. On the same count and under the same terms, next, `CCCCN(C)C(=O)c1cccc(-n2nnc3cccnc32)c1` [Compound 3AX]: > 20 µM. The same measure, in the same setting: the result for `O=C(NC1CCN(Cc2ccccc2)CC1)c1cccc(-n2nnc3cccnc32)c1` [Compound 3AY] reads > 20 µM; that for `COc1ccc(N2CCN(C(=O)c3cccc(-n4nnc5cccnc54)c3)CC2)cc1` [Compound 3AZ], > 20 µM. For the molecule `Cc1cccc(N2CCN(C(=O)c3ccc(C)c(-n4nnc5cccnc54)c3)CC2C)c1` (stereo not drawn) [Compound 3A], under setting [2], the IC50 is < 1 µM. Same read-out and setting: the result for `O=C(NCCCN1CCN(Cc2ccccc2)CC1)c1cccc(-n2nnc3cccnc32)c1` [Compound 3BA] reads > 20 µM; that for `Cc1ccc(C(=O)NCc2ccccc2)cc1-n1nnc2cccnc21` [Compound 3BB], > 20 µM; that for `Cc1ccc(C(=O)N(C)Cc2ccccc2)cc1-n1nnc2cccnc21` [Compound 3BC], > 20 µM. Still for that read-out and setting: next, `Cc1ccc(CNC(=O)c2ccc(C)c(-n3nnc4cccnc43)c2)cc1` [Compound 3BD]: > 20 µM. The same measure, in the same setting: next, `Cc1ccc(C(=O)N2CCN(C3CCCCC3)CC2)cc1-n1nnc2cccnc21` [Compound 3BE]: > 20 µM; `Cc1cccc(CNC(=O)c2ccc(C)c(-n3nnc4cccnc43)c2)c1` [Compound 3BF]: > 20 µM. As for `CCN(Cc1ccccc1)C(=O)c1ccc(C)c(-n2nnc3cccnc32)c1` [Compound 3BG], the IC50 under setting [2] was > 20 µM.

Consider `Cc1ccc(C(=O)NC2CCN(Cc3ccccc3)CC2)cc1-n1nnc2cccnc21` [Compound 3BH], for which the IC50 under setting [2] was > 20 µM.
